# Source: US8263638B2, “Dosing regimens for ion channel modulating compounds” (priority 2004, dated 2012)
# Read-outs that look alike come from different tables or passages of the source.
# What was measured:
# Type in all cases: in vivo, human
# [1] = tested on: atrial fibrillation of 3 to 72 h duration; experiment: Randomized, double-blind, step-dose, placebo-controlled study in acute atrial fibrillation (Example 2)
# Experimental: This was a randomized, double-blind, step-dose, placebo-controlled, parallel group study on humans. Fifty-six patients with atrial fibrillation of 3 to 72 h duration were randomized to one of two COMPOUND A dose groups or to placebo. The two COMPOUND A groups were RSD-1 (0.5 mg/kg followed by 1.0 mg/kg) or RSD-2 (2.0 mg/kg followed by 3.0 mg/kg), doses given by intravenous infusion over 10 min. The primary endpoint was termination of atrial fibrillation during a 10-min infusion or the subsequent 30-min. Secondary endpoints included the number of patients in sinus rhythm at 0.5, 1 and 24 h post-infusion and time to conversion to sinus rhythm. […] COMPOUND A converted acute atrial fibrillation to sinus rhythm.
# Patients in this study had to have a rhythm of sustained atrial fibrillation (AF) with a duration of 3 to 72 h at the time of randomization. Patients were randomized to one of three groups and in each group received up to two 10-min intravenous infusions, separated by 30 min. Infusions were placebo followed by placebo, 0.5 mg/kg followed by 1.0 mg/kg COMPOUND A, or 2.0 […] COMPOUND A. The second dose in each group was administered only if AF was present 30 min after completion of the first dose. Doses for patients weighing>113 kg were capped as if the patient weight was 113 kg.
# A Holter rhythm strip continuously monitored ECG, vital signs (blood pressure and heart rate, BP and HR, respectively) and O2 saturation were recorded every 2 min from the start of infusion to 5 min after, as well as at 15, 30, 60, 120, 240, 360, and 480 min and at discharge and one-week follow-up. Twelve-lead ECGs were obtained before dosing and every minute during infusion to 5 min after, as well as at 15, 30, 60, 120, 240, 360, and 480 min and at discharge, 24 h and one-week follow-up, and at the time of arrhythmia termination or significant rhythm changes. Venous blood samples were drawn for COMPOUND A plasma concentrations at 0, 15, 30, 120, 240, 480 min discharge and at AF termination or significant adverse events.
# Fifty-five patients were evaluated for efficacy. Data are presented as mean±SD, median with interquartile range (IQR), all tests were performed as two sided and 95% confidence interval (CI) were produced; p<0.05 was considered statistically significant unless stated otherwise. Analysis of the relationship between termination of AF and treatment was performed using a chi-square analysis. In cases of small cell frequencies, the Fisher's exact test was used. A Cochran-Armitage test statistic with table scores was used to test the ascending dose evaluation of efficacy.
# The time to conversion from the start of the first infusion was analyzed by the Cox regression method of event time analysis and one-way ANOVA. Assessment of the significance of time point values and mean change from baseline to each follow-up reading of ECG intervals (QRS, QT, QTc), BP, and HR were made within dose groups using paired t tests, and comparisons among dose groups were made using a one-way ANOVA.
# [2] = tested on: atrial fibrillation (AF duration 3 hr-7 days; 8-45 days); experiment: Effect of age, gender and prior rate control medications on conversion of AF to SR (Example 4); details: for Number of Pts Converted to Sinus Rhythm / Pts (%) Converted to Sinus Rhythm: AF Duration 3 hr-7 days
# Experimental: Patients (pts) were block randomized in a double-blind, controlled study in a 2:1 ratio to receive COMPOUND A or placebo, stratified by AF duration (3 hr-7 days; 8-45 days). COMPOUND A (3 mg/kg), or similar appearing placebo, were infused over 10-min, followed by a second infusion if AF was not terminated (2 mg/kg or placebo). The proportion of pts with AF duration 3 hr-7 days who had treatment-induced conversion to SR within 90 min was the primary endpoint. Logistic regression was used to examine the effect of age (<65 vs ≧65), gender, and a prior use of rate control medications (beta blockers, calcium antagonists, digoxin).
# [3] = Plasma levels in Atrial Arrhythmia Conversion Trial 1 (Example 6); details: for concentration at 10 min: human, plasma, intravenous
# Experimental: Plasma levels were obtained, where possible, for the patients at various time intervals following the initial infusion. The time intervals were 10 minutes (i.e., immediately after the initial infusion), 35 minutes (i.e., immediately after the second infusion where applicable), 50 minutes, 90 minutes, and 24 hours.
# [4] = End infusion 1, 0.5 and 1.0 mg/kg
# [5] = End infusion 1, 2.0 and 3.0 mg/kg
# [6] = End infusion 2, 0.5 and 1.0 mg/kg
# [7] = End infusion 2, 2.0 and 3.0 mg/kg
# [8] = 30 days following drug administration
# [9] = patients receiving both infusions
# [10] = patients receiving only a first infusion
smiles,measurement,setting,value
"COc1ccc(CCO[C@@H]2CCCC[C@H]2N2CC[C@@H](O)C2)cc1OC.Cl [COMPOUND A, (1R,2R)-2-[(3R)-hydroxypyrrolidinyl]-1-(3,4-dimethoxyphenethoxy)cyclohexane monohydrochloride]",net efficacy for conversion of recent onset AF,[1]; 61% to 5% (placebo),56%
same,median time for termination of AF from the start of the first infusion,[1]; COMPOUND A treatment groups (FIG. 1),11 min
same,HEART RATE,[1]; [4],104 ± 7 BPM
same,QRS,[1]; [4],86 ± 3 ms
same,QTc,[1]; [4],419 ± 6 ms
same,HEART RATE,[1]; [5],98 ± 5 BPM
same,QRS,[1]; [5],95 ± 3 ms
same,QTc,[1]; [5],449 ± 9 ms
same,HEART RATE,[1]; [6],107 ± 6 BPM
same,QRS,[1]; [6],90 ± 6 ms
same,QTc,[1]; [6],414 ± 11 ms
same,HEART RATE,[1]; [7],104 ± 6 BPM
same,QRS,[1]; [7],99 ± 5 ms
same,QTc,[1]; [7],447 ± 17 ms
same,cumulative AF termination within 30 min of infusion,[1]; RSD-1: 0.5 mg/kg followed by 1.0 mg/kg i.v.,11%
same,patients in sinus rhythm (excluding those electrically cardioverted) at 24 h post infusion,[1]; RSD-1: 0.5 + 1.0 mg/kg,56%
same,patients in sinus rhythm at 30 min post-infusion,[1]; RSD-1: 0.5 + 1.0 mg/kg,11%
same,patients in sinus rhythm at 1 h post infusion,[1]; RSD-1: 0.5 + 1.0 mg/kg,11%
same,median time to conversion to sinus rhythm from the start of the first infusion,"[1]; RSD-1, five eventual responders",166 min
same,patients reporting cardiac disorders (adverse events),[1]; RSD-1 group,22.2%
same,electrical cardioversion attempted within the study period (24 h),[1]; RSD-1 treated,50%
same,electrical cardioversion successful,[1]; RSD-1 treated,100%
same,cumulative AF termination within 30 min of infusion,[1]; RSD-2: 2.0 mg/kg followed by 3.0 mg/kg i.v.,61%
same,patients in sinus rhythm (excluding those electrically cardioverted) at 24 h post infusion,[1]; RSD-2: 2.0 + 3.0 mg/kg,79%
same,patients in sinus rhythm at 30 min post-infusion,[1]; RSD-2: 2.0 + 3.0 mg/kg,56%
same,patients in sinus rhythm at 1 h post infusion,[1]; RSD-2: 2.0 + 3.0 mg/kg,53%
same,median time to conversion to sinus rhythm from the start of the first infusion,"[1]; RSD-2, eleven responders",14 min
same,mean heart rate,"[1]; RSD-2 dose, T1=15 min (baseline mean 106)",90 beats per min
same,median time to termination of AF after start of the first infusion,[1]; RSD-2 group,11 min
same,patients reporting cardiac disorders (adverse events),[1]; RSD-2 group,16.7%
same,electrical cardioversion attempted within the study period (24 h),[1]; RSD-2 treated,22%
same,electrical cardioversion successful,[1]; RSD-2 treated,100%
same,"QT interval, first available ECG records after conversion to sinus rhythm","[1]; human, in vivo",366 ± 28 ms
same,"QTc interval, first available ECG records after conversion to sinus rhythm","[1]; human, in vivo",427 ± 19 ms
same,drug related proarrhythmia,[1]; in vivo,no instances
same,effect on QTc or QRS intervals compared to placebo,[1]; infusion,did not significantly prolong
same,median time to conversion,[2]; 3 hr-7 day group (n=75),11 min
same,pts with serious adverse events (%),[2]; [8],13%
same,pts with serious adverse events (number),[2]; [8],29
same,Number of Pts Converted to Sinus Rhythm,[2]; Men,53
same,Pts (%) Converted to Sinus Rhythm,[2]; Men,52%
same,Number of Pts Converted to Sinus Rhythm,[2]; No Prior Rate Control Drugs,19
same,Pts (%) Converted to Sinus Rhythm,[2]; No Prior Rate Control Drugs,53%
same,Number of Pts Converted to Sinus Rhythm,[2]; Prior Rate Control Drugs,56
same,Pts (%) Converted to Sinus Rhythm,[2]; Prior Rate Control Drugs,51%
same,Number of Pts Converted to Sinus Rhythm,[2]; Women,22
same,Pts (%) Converted to Sinus Rhythm,[2]; Women,51%
same,Number of Pts Converted to Sinus Rhythm,[2]; age <65,49
same,Pts (%) Converted to Sinus Rhythm,[2]; age <65,56%
same,Number of Pts Converted to Sinus Rhythm,[2]; age ≧65,26
same,Pts (%) Converted to Sinus Rhythm,[2]; age ≧65,46%
same,drug-related Torsades de Pointes,[2]; in vivo,No cases
same,patients converted to SR,"[2]; primary end-point group, AF 3 hr-7 days, 3 mg/kg then 2 mg/kg, within 90 min",52%
same,concentration at 10 min,"[3]; 2 mg/kg, patients receiving both infusions (3.0 + 2.0 mg/kg), read-out: Plasma Concentration of COMPOUND A at 10 min., Mean",3910 ng/mL
same,concentration at 10 min,"[3]; 3 mg/kg, patients receiving only a first infusion (3.0 mg/kg), read-out: Plasma Concentration of COMPOUND A at 10 min., Mean",4280 ng/mL
same,concentration at 10 min,"[3]; 3 mg/kg, patients receiving only a first infusion, read-out: Plasma Concentration of COMPOUND A at 10 min., Maximum",11600 ng/mL
same,concentration at 10 min,"[3]; 3 mg/kg, patients receiving only a first infusion, read-out: Plasma Concentration of COMPOUND A at 10 min., Median",4080 ng/mL
same,concentration at 10 min,"[3]; 3 mg/kg, patients receiving only a first infusion, read-out: Plasma Concentration of COMPOUND A at 10 min., Minimum",0 ng/mL
same,concentration at 10 min,"[3]; patients receiving both infusions, read-out: Plasma Concentration of COMPOUND A at 10 min., Maximum",9330 ng/mL
same,concentration at 10 min,"[3]; patients receiving both infusions, read-out: Plasma Concentration of COMPOUND A at 10 min., Median",4070 ng/mL
same,concentration at 10 min,"[3]; patients receiving both infusions, read-out: Plasma Concentration of COMPOUND A at 10 min., Minimum",0 ng/mL
same,"Maximum Plasma Concentration of COMPOUND A, Maximum",[3]; [9],9330 ng/mL
same,"Maximum Plasma Concentration of COMPOUND A, Median",[3]; [9],4855 ng/mL
same,"Maximum Plasma Concentration of COMPOUND A, Minimum",[3]; [9],1430 ng/mL
same,"Maximum Plasma Concentration of COMPOUND A, Mean",[3]; patients receiving both infusions (3.0 + 2.0 mg/kg),4662 ng/mL
same,"Maximum Plasma Concentration of COMPOUND A, Maximum",[3]; [10],11600 ng/mL
same,"Maximum Plasma Concentration of COMPOUND A, Median",[3]; [10],4075 ng/mL
same,"Maximum Plasma Concentration of COMPOUND A, Minimum",[3]; [10],7 ng/mL
same,"Maximum Plasma Concentration of COMPOUND A, Mean",[3]; patients receiving only a first infusion (3.0 mg/kg),4466 ng/mL
